The values below come from US20090082341A1 (SYNOSIA THERAPEUTICS, priority 2007, published 2009).

“Also recorded” adds a separate entry of the source. Some results are limits rather than exact numbers.

One data set concerns the target T1, A2A receptors in the dog (Canis lupus familiaris, UniProt P11617).
T1 construct: the cortical (dA1) and striatal (dA2A) tissue was dissected and frozen; from tissue; host or cells: Beagle dog brain striatum, membranes
Nature of the data set: Radioligand binding assay, dog A2A receptor (striatal tissue). Details: species or system dog (Beagle). The note with it: read-out: pKi, dog A2A receptor (converted).

The target of data set [1] is A2A receptors in the monkey (Saimiri sp., UniProt A0A2K6V039). The data set is described as follows: Radioligand binding assay, monkey A2A receptor (striatal tissue).
A2A receptors in the monkey, sequence (A0A2K6V039 entry or part of it): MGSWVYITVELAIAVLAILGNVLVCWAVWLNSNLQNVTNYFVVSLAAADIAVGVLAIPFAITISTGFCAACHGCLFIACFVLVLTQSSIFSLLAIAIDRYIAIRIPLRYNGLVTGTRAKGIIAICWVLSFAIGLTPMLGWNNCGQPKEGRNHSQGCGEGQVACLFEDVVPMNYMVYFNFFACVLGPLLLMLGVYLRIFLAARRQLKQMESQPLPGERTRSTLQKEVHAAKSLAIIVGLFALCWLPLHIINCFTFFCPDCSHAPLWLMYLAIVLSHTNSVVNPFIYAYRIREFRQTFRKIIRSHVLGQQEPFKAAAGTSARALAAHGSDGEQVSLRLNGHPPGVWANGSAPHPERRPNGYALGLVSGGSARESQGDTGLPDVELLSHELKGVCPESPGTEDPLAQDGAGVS
Data set [2] deals with phosphodiesterase (IV) enzyme. Nature of the data set: Enzyme assay panel, phosphodiesterase (IV). The format is biochemical. Particulars: at 10 μM. On the procedure: The IC50 values (concentration causing a half-maximal inhibition of control values), EC50 values (concentration causing a half-maximal stimulation of control values) and Hill coefficients (nH) were determined by non-linear regression analysis of the concentration-response curves using Hill equation curve fitting. See FIG. 33 for general procedures and FIG. 34-36 for experimental conditions for enzyme assays.
It was tested at several concentrations (for IC50 or EC50 value determination), and the data were compared with historical values determined at Cerep.

The target of the next data set is T2, A2A receptors in the rat (Rattus norvegicus, UniProt P30543).
T2 construct: made in house; host or cells: CHO cells, Semliki Forest virus expression system
T2 sequence (P30543 whole entry): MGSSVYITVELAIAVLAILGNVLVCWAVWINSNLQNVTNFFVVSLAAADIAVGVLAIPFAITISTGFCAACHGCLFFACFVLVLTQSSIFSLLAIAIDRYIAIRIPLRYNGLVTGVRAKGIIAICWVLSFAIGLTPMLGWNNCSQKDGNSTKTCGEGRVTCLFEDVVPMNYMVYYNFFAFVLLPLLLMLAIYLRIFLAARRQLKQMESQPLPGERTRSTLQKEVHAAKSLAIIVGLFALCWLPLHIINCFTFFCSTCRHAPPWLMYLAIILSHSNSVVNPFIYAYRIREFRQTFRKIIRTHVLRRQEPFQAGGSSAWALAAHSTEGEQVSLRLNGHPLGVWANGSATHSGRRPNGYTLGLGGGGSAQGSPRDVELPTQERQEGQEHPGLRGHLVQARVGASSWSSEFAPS
The data set is described as follows: Radioligand binding assay, rat A2A receptor. The note with it: read-out: pKi, rat A2A receptor (converted).

In a further data set the target is T3, human A1 receptor (Homo sapiens, UniProt P30542).
T3 sequence (P30542 1-326): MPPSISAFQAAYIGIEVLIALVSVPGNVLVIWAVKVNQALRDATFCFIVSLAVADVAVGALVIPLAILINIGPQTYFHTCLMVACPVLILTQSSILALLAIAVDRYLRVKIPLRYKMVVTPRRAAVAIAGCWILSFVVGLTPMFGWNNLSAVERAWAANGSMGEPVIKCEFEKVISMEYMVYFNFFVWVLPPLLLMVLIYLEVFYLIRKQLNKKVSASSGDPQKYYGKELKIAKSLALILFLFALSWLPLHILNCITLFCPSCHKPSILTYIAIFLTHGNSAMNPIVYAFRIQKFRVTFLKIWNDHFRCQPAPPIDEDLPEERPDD
The data set is described as follows: NECA-stimulated Ca2+ flux in hA1-Gα16-CHO cells (FLIPR). It counts as cell-based. On the procedure: The density of cells was sufficient to yield a confluent monolayer the next day. Hanks balanced salt solution, without phenol red, containing 20 mM HEPES (pH 7.3) and 2.5 mM probenecid (assay buffer) was prepared fresh for each experiment. […] The dye-loading buffer consisted of a final concentration of 2 μM Fluo-4-AM (dissolved in DMSO and pluronic acid) in assay buffer. […] Once dye-loaded, the cells were washed thoroughly on an Embla cell washer with the assay buffer to remove any unincorporated dye. Exactly 100 μl assay buffer was left in each well.
J. Pharm. […] The concentration of agonist that produced a half-maximal response is represented by the EC50 value, the logarithm of which yielded the pEC50 value.
On the technique in general: Calcium flux is commonly read through the fluorescence of an indicator in the cells.

The subject of another data set is male Sprague Dawley rats. The data set is described as follows: Elevated plus-maze test. It counts as in vivo, rat. On the procedure:
Animals are placed in the center of an elevated maze containing two closed and two open arms. The time spent in the open arms of the maze, together with the number of times the animals enter the open arms of the maze, are taken as indices of the level of neophobic anxiety of these animals.
Levels of anxiety were determined by the time spent and the distance traveled in the open arms of the maze. Data are mean±SEM based on 12 animals per group. […] FIG. 5: SEM: standard error of the mean. Results are based on 11 animals. […] Data analyzed with a paired t-test.
Adult male Sprague Dawley rats weighing approximately 200 g at the start of the experiment were used. They were housed in groups of four in Macrolon Type 3 cages (810 cm^2) with sawdust bedding. The animals were maintained on a 12:12 h light-dark cycle with light onset at 6 am., with free access to tap water and food (Promikliba Kaiseraugst, Switzerland). Room temperature (21-23° C.) and humidity (55-65%) were kept constant.
The elevated plus-maze consisted of two open arms perpendicular to two closed arms (each arm was 10 cm wide×50 cm long) extending from a small open central area. The apparatus was constructed from grey polyvinylchloride plastic and placed 50 cm above the floor. […] The apparatus was situated in a sound-attenuated observation room with controlled illumination (200 lux on the central platform of the plus-maze). Rats were tested in a randomized order. The test started by placing the animal on the central platform facing a closed arm. The duration of the test was 5 minutes. 70% ethanol was used to clean the apparatus prior to the introduction of each animal.
The plus-maze was positioned in the middle of a closed black environment with the animal observed via a closed circuit video camera mounted above the maze. Behavioral analysis was conducted using a computerized system (Ethovision, Noldus Information Technology, The Netherlands).
Each treatment group consisted of 9 to 12 rats. Each animal was used only for a single experiment. […] After drug administration, rats were isolated in small cages without sawdust and water. After one hour, they were placed in the plus-maze.
The measures selected to represent anxiolytic-like behavior was the time spent (sec) within the open arms, the distance traveled (cm) within the open arms, and the number of transitions between the central platform and the open arms. The measure used to quantify motor activity was the distance traveled per second (speed) within the closed arms.
The compounds were administered p.o. (gavage) in a volume of 5 ml/kg body weight. Control animals received equal volume injections of vehicle.
A p-value lower than 0.05 was considered significant. The effects of chlordiazepoxide were analysed using a t-test.

[3] abbreviates: 3, 10 and 30 mg/kg po, vs vehicle.

T1 sequence (P11617 whole entry): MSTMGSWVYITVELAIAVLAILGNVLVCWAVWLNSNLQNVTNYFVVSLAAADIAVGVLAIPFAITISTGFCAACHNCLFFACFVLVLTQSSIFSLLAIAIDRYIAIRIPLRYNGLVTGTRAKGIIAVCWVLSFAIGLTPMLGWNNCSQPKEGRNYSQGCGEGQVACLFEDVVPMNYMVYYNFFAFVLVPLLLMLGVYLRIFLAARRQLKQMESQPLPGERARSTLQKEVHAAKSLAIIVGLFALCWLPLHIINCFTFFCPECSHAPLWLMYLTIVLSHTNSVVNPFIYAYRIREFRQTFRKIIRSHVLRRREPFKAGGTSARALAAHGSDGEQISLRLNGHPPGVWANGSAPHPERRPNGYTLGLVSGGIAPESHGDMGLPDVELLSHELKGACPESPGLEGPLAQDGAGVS

In the case of `COc1ccc(N2CCOCC2)c2sc(NC(=O)N3CCC(C)(O)CC3)nc12` [4-hydroxy-4-methyl-piperidine-1-carboxylic acid (4-methoxy-7-morpholin-4-yl-benzothiazol-2-yl)-amide], on A2A receptors in the dog, the Ki is 12.6 nM. The “pKi, monkey A2A receptor” value in data set [1] is given as 7.9. The “inhibition of phosphodiesterase (IV) enzyme” value in data set [2] was determined as 88%. Further, the Ki on A2A receptors in the rat was 20 nM. Besides, the “Hill slope, hA1 Ca2+ flux” value on human A1 receptor is given as 0.7. Moreover, the IC50 on human A1 receptor (read-out: pIC50, antagonism of NECA-stimulated Ca2+ flux, hA1 (converted)) was above 10000 nM. Besides, in the data set on male Sprague Dawley rats (setting [3]), the “distance traveled in open arms” value was “dose-dependent increase; also recorded: significantly and dose-dependently increased”; the “entries into the open arms” value was “dose-dependent increase; also recorded: significantly and dose-dependently increased”; the “speed in the closed arms” value was “increased speed in the closed arms reaching statistical significance at 10 and 30 mg/kg”; the “time spent in the open arms” value is “significant dose-dependent increase; also recorded: significantly and dose-dependently increased”. Also, in the data set with male Sprague Dawley rats (po), the “dose of maximal effect, all parameters measured” value was found to be 30 mg/kg; the “lowest dose that reached statistical significance, distance traveled in the open arms” value was found to be 30 mg/kg; the “lowest dose that reached statistical significance, open arm entries” value is listed as 10 mg/kg; the “lowest dose that reached statistical significance, time spent in the open arms” value is recorded as 30 mg/kg.
